Consider one compound from patent US6369092B1, “Method for treating neoplasia by exposure to substituted benzimidazole derivatives” (Cell Pathways, Inc., priority 1998, dated 2002).

The structures appear in SMILES notation.

In turn, `CCCc1nc2ccc(NC(=O)OC(C)(C)C)cc2n1Cc1ccccc1Cl` [I, 6-t-Butoxycarbonylamino-1-(2-Chlorobenzyl)-2-n-Propylbenzimidazole] registered a melting point of 166 to 168 °C.
